Measured values as given in patent publication US7723321B2, “Chromane substituted benzimidazole derivatives” (RaQualia Pharma Inc., priority 2005, dated 2010).

Biological target: T1, porcine gastric H^+/K^+-ATPase (Sus scrofa, UniProt P19156)
T1 construct: prepared from mucous membrane in fresh porcine stomachs by homogenization; from tissue; host or cells: mucous membrane of fresh porcine stomachs (gastric vesicles, Ficoll/sucrose gradient)
Assay: Ion-tight porcine gastric H+/K+-ATPase inhibition
Assay type: biochemical
Settings: ion-tight porcine gastric vesicles, 150 mM KCl, valinomycin, pH 7.4, 37° C., 30 minutes
Method: The porcine gastric vesicles for Porcine gastric H^+/K^+-ATPase inhibition assays were prepared from mucous membrane in fresh porcine stomachs by homogenization with a tight-fitted polytetrafluoroethylene (Teflone®) homogenizer in 0.25 M sucrose at 4° C. The crude pellet was removed with centrifugation at 20,000 g for 30 min. Then supernatant was centrifuged at 100,000 g for 30 min. The resulting pellet was re-suspended in 0.25 M sucrose, and then subjected to density gradient centrifugation at 132,000 g for 90 min. The gastric vesicles were collected from interface on 0.25 M sucrose layer containing 7% Ficoll™ PM400(Amersham Biosciences). This procedure was performed in a cold room.
Ion-tight porcine gastric H^+/K^+-ATPase inhibition was measured according to the modified method described in Biochemical Pharmacology, 1988, 37, 2231-2236.
The isolated vesicles were kept in deep-freezer until use. For enzyme assay, vesicles were diluted with 3 mM MgSO4 containing 5 mM Tris (pH 7.4 at 37° C.).
Enzyme reaction was performed incubating 150 mM KCl, 3 mM Na2ATP, 3 mM MgSO4 15 μM valinomycin and 3.0 μg of vesicles for 30 minutes at 37° C. in a final 60 μl of reaction mixture (5 mM Tris, pH 7.4) with or without the test compound. Enzyme reaction was stopped by adding 10% SDS. Released inorganic phosphate from ATP was detected by incubating with mixture of 1 part of 35 mM ammonium molybdate tetrahydrate in 15 mM Zinc acetate hydrate and 4 parts of 10% ascorbic acid (pH 5.0), resulting in phosphomolybdate, which has optical density at 750 nm.

T1 sequence (P19156 2-1034 limits assumed): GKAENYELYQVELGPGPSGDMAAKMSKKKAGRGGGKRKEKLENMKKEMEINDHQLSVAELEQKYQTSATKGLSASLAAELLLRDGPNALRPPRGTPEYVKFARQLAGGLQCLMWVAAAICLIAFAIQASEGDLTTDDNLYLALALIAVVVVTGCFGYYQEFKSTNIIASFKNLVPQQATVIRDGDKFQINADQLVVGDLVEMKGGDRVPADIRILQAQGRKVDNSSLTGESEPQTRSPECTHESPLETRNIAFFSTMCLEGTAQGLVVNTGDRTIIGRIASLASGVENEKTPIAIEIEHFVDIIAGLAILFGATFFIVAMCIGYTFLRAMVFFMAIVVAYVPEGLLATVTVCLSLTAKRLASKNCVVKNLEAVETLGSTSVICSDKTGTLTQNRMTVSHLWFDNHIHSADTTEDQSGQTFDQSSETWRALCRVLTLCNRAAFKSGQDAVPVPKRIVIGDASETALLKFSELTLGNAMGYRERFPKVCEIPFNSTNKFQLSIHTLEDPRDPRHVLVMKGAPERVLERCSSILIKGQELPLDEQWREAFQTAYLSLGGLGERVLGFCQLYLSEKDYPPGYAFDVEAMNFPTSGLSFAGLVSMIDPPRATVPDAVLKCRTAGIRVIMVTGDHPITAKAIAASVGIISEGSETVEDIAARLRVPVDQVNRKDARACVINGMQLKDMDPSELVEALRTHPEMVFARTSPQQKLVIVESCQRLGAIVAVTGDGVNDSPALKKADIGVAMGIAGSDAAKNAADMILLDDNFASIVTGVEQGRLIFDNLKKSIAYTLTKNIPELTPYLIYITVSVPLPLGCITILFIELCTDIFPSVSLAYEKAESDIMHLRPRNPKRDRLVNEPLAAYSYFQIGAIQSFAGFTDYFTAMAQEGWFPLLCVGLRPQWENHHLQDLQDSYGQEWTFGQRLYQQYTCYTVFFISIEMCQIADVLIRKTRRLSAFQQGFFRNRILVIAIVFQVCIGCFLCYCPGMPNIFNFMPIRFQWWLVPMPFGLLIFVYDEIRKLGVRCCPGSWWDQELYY
T1 sequence (P18434 whole entry partner): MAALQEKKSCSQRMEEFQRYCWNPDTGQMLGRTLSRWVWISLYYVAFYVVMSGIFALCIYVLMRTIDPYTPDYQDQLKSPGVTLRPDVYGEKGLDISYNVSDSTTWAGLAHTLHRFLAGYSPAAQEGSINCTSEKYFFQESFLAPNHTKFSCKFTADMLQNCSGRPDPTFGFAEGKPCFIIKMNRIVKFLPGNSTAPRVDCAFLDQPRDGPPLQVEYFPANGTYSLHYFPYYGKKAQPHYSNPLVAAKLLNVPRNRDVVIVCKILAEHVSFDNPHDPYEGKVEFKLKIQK

Compared with `Cc1nc2c(OC3CCOc4cc(F)cc(F)c43)cc(C(=O)N(C)C)cc2[nH]1` (racemic) [Example 1, 4-[(5,7-Difluoro-3,4-dihydro-2H-chromen-4-yl)oxy]-N,N,2-trimethyl-1H-benzimidazole-6-carboxamide], `Cc1nc2c(O[C@H]3CCOc4cc(F)cc(F)c43)cc(C(=O)N(C)C)cc2[nH]1` (single isomer, unassigned) [Example 2] is 2.2-fold lower in IC50: 190 nM for the first, 86 nM for the second.

First: Cc1nc2c(OC3CCOc4cc(F)cc(F)c43)cc(C(=O)N3CCCC3)cc2[nH]1 (racemic) [Example 4, 4-[(5,7-Difluoro-3,4-dihydro-2H-chromen-4-yl)oxy]-2-methyl-6-(pyrrolidin-1-ylcarbonyl)-1H-benzimidazole]
Second: Cc1nc2c(OC3CCOc4cc(F)cc(F)c43)cc(C(=O)N3CCC3)cc2[nH]1 (single isomer, unassigned; (-)) [Example 22, (−)-6-(Azetidin-1-ylcarbonyl)-4-[(5,7-difluoro-3,4-dihydro-2H-chromen-4-yl)oxy]-2-methyl-1H-benzimidazole]
The IC50 of the first is 9.8-fold lower: 58 nM for the first, 570 nM for the second. The first is the more potent here.

`Cc1nc2c(OC3CCOc4cccc(F)c43)cc(C(=O)N(C)C)cc2[nH]1` (racemic) [Example 9, 4-[(5-Fluoro-3,4-dihydro-2H-chromen-4-yl)oxy]-N,N,2-trimethyl-1H-benzimidazole-6-carboxamide] and `Cc1nc2c(OC3CCOc4cccc(C)c43)cc(C(=O)N(C)C)cc2[nH]1` (single isomer, unassigned; (+)) [Example 18, (+)-N,N,2-Trimethyl-4-[(5-methyl-3,4-dihydro-2H-chromen-4-yl)oxy]-1H-benzimidazole-6-carboxamide] are the same in IC50: 130 nM for the first, 130 nM for the second.

`Cc1nc2c(O[C@@H]3CCOc4cc(F)cc(F)c43)cc(C(=O)N(C)C)cc2[nH]1` (single isomer, unassigned) [Example 3] and `CCN(C)C(=O)c1cc(O[C@H]2CCOc3cc(F)cc(F)c32)c2nc(C)[nH]c2c1` [Example 23, (−)-4-[(5,7-Difluoro-3,4-dihydro-2H-chromen-4-yl)oxy]-N-ethyl-N,2-dimethyl-1H-benzimidazole-6-carboxamide] are within 1.5-fold of each other in IC50: 98 nM for the first, 110 nM for the second.

Compared with `Cc1nc2c(OC3CCOc4cc(F)cc(F)c43)cc(C(=O)N3CCCC3)cc2[nH]1` (single isomer, unassigned; (+)) [Example 5, (+)-4-[(5,7-Difluoro-3,4-dihydro-2H-chromen-4-yl)oxy]-2-methyl-6-(pyrrolidin-1-ylcarbonyl)-1H-benzimidazole], `Cc1nc2c(O[C@H]3CCOc4cc(F)cc(F)c43)cc(C(=O)N3CCOCC3)cc2[nH]1` [Example 24, (−)-4-[(5,7-Difluoro-3,4-dihydro-2H-chromen-4-yl)oxy]-2-methyl-6-(morpholin-4-ylcarbonyl)-1H-benzimidazole] is 12-fold higher in IC50: 32 nM for the first, 370 nM for the second.

`Cc1nc2c(OC3CCOc4cccc(F)c43)cc(C(=O)N(C)C)cc2[nH]1` (single isomer, unassigned; (+)) [Example 11, (+)-4-[(5-Fluoro-3,4-dihydro-2H-chromen-4-yl)oxy]-N,N,2-trimethyl-1H-benzimidazole-6-carboxamide] and `Cc1nc2c(OC3CCOc4cccc(C)c43)cc(C(=O)N(C)C)cc2[nH]1` (single isomer, unassigned; (-)) [Example 17, (−)-N,N,2-Trimethyl-4-[(5-methyl-3,4-dihydro-2H-chromen-4-yl)oxy]-1H-benzimidazole-6-carboxamide] are within 1.5-fold of each other in IC50: 120 nM for the first, 99 nM for the second.

Compared with `Cc1nc2c(OC3CCOc4cc(F)cc(F)c43)cc(C(=O)N3CCCC3)cc2[nH]1` (single isomer, unassigned; (-)) [Example 6, (−)-4-[(5,7-Difluoro-3,4-dihydro-2H-chromen-4-yl)oxy]-2-methyl-6-(pyrrolidin-1-ylcarbonyl)-1H-benzimidazole], `Cc1nc2c(OC3CCOc4cccc(C)c43)cc(C(=O)N3CCCC3)cc2[nH]1` (centres unmarked) [Example 20, 2-Methyl-4-[(5-methyl-3,4-dihydro-2H-chromen-4-yl)oxy]-6-(pyrrolidin-1-ylcarbonyl)-1H-benzimidazole] is 2.4-fold higher in IC50: 30 nM for the first, 71 nM for the second.

Going from `Cc1nc2c(OC3CCOc4cccc(F)c43)cc(C(=O)N(C)C)cc2[nH]1` (single isomer, unassigned; (-)) [Example 10, (−)-4-[(5-Fluoro-3,4-dihydro-2H-chromen-4-yl)oxy]-N,N,2-trimethyl-1H-benzimidazole-6-carboxamide] to `Cc1nc2c(OC3CCOc4cccc(C)c43)cc(C(=O)N(C)C)cc2[nH]1` (centres unmarked) [Example 16, N,N,2-Trimethyl-4-[(5-methyl-3,4-dihydro-2H-chromen-4-yl)oxy]-1H-benzimidazole-6-carboxamide], the IC50 falls from 140 nM to 68 nM (2.1-fold). The second is the more potent here.

Compared with `Cc1nc2c(OC3CCOc4cc(F)cc(F)c43)cc(C(=O)N(C)CCO)cc2[nH]1` (centres unmarked) [Example 7, 4-[(5,7-Difluoro-3,4-dihydro-2H-chromen-4-yl)oxy]-N-(2-hydroxyethyl)-N,2-dimethyl-1H-benzimidazole-6-carboxamide], `Cc1nc2c(OC3CCOc4cc(F)cc(F)c43)cc(C(=O)N(C)CCN(C)C)cc2[nH]1` (centres unmarked) [Example 8, 4-[(5,7-Difluoro-3,4-dihydro-2H-chromen-4-yl)oxy]-N-[2-(dimethylamino)ethyl]-N,2-dimethyl-1H-benzimidazole-6-carboxamide] is 1.8-fold lower in IC50: 1100 nM for the first, 610 nM for the second.

`Cc1nc2c(OC3CCOc4ccccc43)cc(C(=O)N(C)C)cc2[nH]1` (centres unmarked) [Example 12, 4-(3,4-Dihydro-2H-chromen-4-yloxy)-N,N,2-tri methyl-1H-benzimidazole-6-carboxamide] and `Cc1nc2c(OC3CCSc4ccccc43)cc(C(=O)N(C)C)cc2[nH]1` (centres unmarked) [Example 25, 4-(3,4-Dihydro-2H-thiochromen-4-yloxy)-N,N,2-trimethyl-1H-benzimidazole-6-carboxamide] are within 1.5-fold of each other in IC50: 230 nM for the first, 160 nM for the second.

First: Cc1nc2c(OC3CCOc4c(F)ccc(C)c43)cc(C(=O)N(C)C)cc2[nH]1 (centres unmarked) [Example 13, 4-[(8-Fluoro-5-methyl-3,4-dihydro-2H-chromen-4-yl)oxy]-N,N,2-trimethyl-1H-benzimidazole-6-carboxamide]
Second: Cc1nc2c(OC3CCOc4c(F)ccc(F)c43)cc(C(=O)N(C)C)cc2[nH]1 (centres unmarked) [Example 14, 4-[(5,8-Difluoro-3,4-dihydro-2H-chromen-4-yl)oxy]-N,N,2-trimethyl-1H-benzimidazole-6-carboxamide]
The IC50 of the first is 1.7-fold lower: 130 nM for the first, 220 nM for the second.

Compared with `CCc1nc2c(OC3CCOc4cc(F)cc(F)c43)cc(C(=O)N(C)C)cc2[nH]1` (centres unmarked) [Example 15, 4-[(5,7-Difluoro-3,4-dihydro-2H-chromen-4-yl)oxy]-2-ethyl-N,N-dimethyl-1H-benzimidazole-6-carboxamide], `Cc1nc2c(OC3CCOc4cc(F)cc(C)c43)cc(C(=O)N(C)C)cc2[nH]1` (centres unmarked) [Example 21, 4-[(7-Fluoro-5-methyl-3,4-dihydro-2H-chromen-4-yl)oxy]-N,N,2-trimethyl-1H-benzimidazole-6-carboxamide] is 2.6-fold lower in IC50: 210 nM for the first, 82 nM for the second.

`CNC(=O)c1cc(OC2CCOc3cccc(C)c32)c2nc(C)[nH]c2c1` (centres unmarked) [Example 19, N,2-Dimethyl-4-[(5-methyl-3,4-dihydro-2H-chromen-4-yl)oxy]-1H-benzimidazole-6-carboxamide] showed an IC50 of 240 nM.

Test system: gastric acid secretion
Assay: Inhibition of gastric acid secretion in the Heidenhain pouch dog
Assay type: in vivo, Beagle dogs
Settings: histamine-stimulated acid secretion, maximum inhibition relative to control
Method: Male Beagle dogs weighing 7-15 kg with Heidenhain pouch [Heidenhain R: Arch Ges Physiol. 1879, 19: 148-167] were used. The animals were allowed to recover from surgery for at least three weeks before the experiments. The animals were kept at a 12 hour light-dark rhythm, housed singly. They received standard food once daily at 11:00 a.m. and tap water ad libitum, and were fasted overnight prior to the experiment, with free access to water. Gastric juice samples were collected throughout the experiment by gravity drainage every 15 min. Acidity in the gastric juice was measured by titration to the end point of pH 7.0. Acid secretion was stimulated by a continuous intravenous infusion of histamine (80 μg/kg/h). Oral or intravenous bolus administration of the test compounds was done 90 minutes after commencement of the histamine infusion. The acid secretion was monitored after the administration. The activity was evaluated by the maximum inhibition relative to the corresponding control value.

`Cc1nc2c(O[C@H]3CCOc4cc(F)cc(F)c43)cc(C(=O)N(C)C)cc2[nH]1` (single isomer, unassigned) [Example 2] was tested, and the “inhibitory activity (gastric acid secretion)” value was “good inhibitory activity”.
